Data as given in publication PMC10304372, “T-705-Derived Prodrugs Show High Antiviral Efficacies against a Broad Range of Influenza A Viruses with Synergistic Effects When Combined with Oseltamivir” (Pharmaceutics, 2023).
Like-named read-outs stand apart in the source and are kept apart here.

Legend:
A/Victoria/03/75 (H3N2) = assay type: cell-based, influenza A virus
[1] = system: A/Hamburg/NY1580/09 (H1N1); test: microbe, parasite or virus in culture; assay type: cell-based, influenza A virus; conditions: for IC50: read-out: IC50 H1N1
A/Vietnam/1194/04 (H5N1) = test: microbe, parasite or virus in culture; assay type: cell-based, influenza A virus; conditions: for IC90: read-out: IC90 (90% inhibitory effect on viral replication), H5N1
A/Anhui/1/13 (H7N9) = test: microbe, parasite or virus in culture; assay type: cell-based, influenza A virus; conditions: for IC50: read-out: IC50 H7N9
MDCKII cells = conditions: for concentration from which considerable cell cytotoxicity was caused: dog
in vitro = conditions: dog
H5N1 HPAIV = assay type: cell-based, influenza A virus
[2] = system: RdRP subunit PA (polymerase acidic protein); conditions: cited from earlier work
[3] = Influenza A virus, H1N1, MDCK-II, 24 h
[4] = Influenza A virus, H5N1, MDCK-II, 24 h, read-out: IC50 H5N1
[5] = Influenza A virus, H7N9, MDCK-II, 24 h
[6] = Influenza A virus, H5N1, MDCK-II

| Compound | IC50 [1, 3] [nM] | IC50 [1] [nM] | IC50 (A/Vietnam/1194/04 (H5N1); [4]) [nM] | IC50 (A/Vietnam/1194/04 (H5N1); read-out: IC50 H5N1) [nM] | IC50 (A/Anhui/1/13 (H7N9); [5]) [nM] | CC50 (in vitro) [nM] | antiviral activity against H3N2 IAV (in words) (A/Victoria/03/75 (H3N2)) | SI (selectivity index) H1N1 [1] | SI (selectivity index) H5N1 (A/Vietnam/1194/04 (H5N1)) | SI (selectivity index) H7N9 (A/Anhui/1/13 (H7N9)) | concentration from which considerable cell cytotoxicity was caused (MDCKII cells) [µM] | further results |
| --- | --- | --- | --- | --- | --- | --- | --- | --- | --- | --- | --- | --- |
| NC(=O)c1nc(F)c[nH]c1=O [1a, T-705] | 1290 | 1300 ± 1400 | 1140 | 1140 ± 1170 | 790 ± 540 | > 50000 | – | – | – | – | – | reduction of virus replication (A/Victoria/03/75 (H3N2)): approximately 1.5 logs; effect on cell viability (in words) (MDCKII cells): did not affect cell viability |
| NC(=O)c1ncc[nH]c1=O [1b, T-1105, reference compound] | – | – | – | – | – | – | – | – | – | – | – | reduction of virus replication (A/Victoria/03/75 (H3N2)): approximately 1.5 logs |
| NC(=O)c1nccn([C@@H]2O[C@H](CO)[C@@H](O)[C@H]2O)c1=O [2a, T-1106] | – | – | – | – | – | – | slightly higher activity compared to T-1105 1b | – | – | – | – | – |
| CCCCCCCCCC(=O)Oc1ccc(COP(=O)(OCc2ccc(OC(=O)CCCCCCCCC)cc2)OP(=O)(O)OC[C@H]2O[C@@H](n3ccnc(C(N)=O)c3=O)[C@H](O)[C@@H]2O)cc1 [3a] | 130 ± 140 | – | 220 | 224 ± 230 | 70 | > 50000 | reduced viral titers to the limit of detection | 643.9 | 373.7 | 1179.0 | ≥ 30 | increase in antiviral activity compared to 1a (T-705), H1N1 [1]: 10 fold; IC1 (1% inhibitory effect on viral replication), H5N1 (A/Vietnam/1194/04 (H5N1)): 0.0005 µM; IC10 (10% inhibitory effect on viral replication), H5N1 (A/Vietnam/1194/04 (H5N1)): 13.2 nM; reduction of H5N1 virus titers to the limit of detection (in words) (A/Vietnam/1194/04 (H5N1)): to the limit of detection; IC50 (A/Vietnam/1194/04 (H5N1); Influenza A virus, H5N1, MDCK-II, read-out: IC50, H5N1, as used for combination treatment): 267 nM; IC90 (A/Vietnam/1194/04 (H5N1); [6]): 5400 nM; more active than 1a against H7N9 (A/Anhui/1/13 (H7N9)): 10 fold; reduction of H7N9 virus titers to the limit of detection (in words) (A/Anhui/1/13 (H7N9)): to the limit of detection; IC50 (A/Anhui/1/13 (H7N9)): 71 ± 90 nM; interaction with oseltamivir against H5N1 (in words) (H5N1 HPAIV): strong synergistic effect |
| CCCCCCCCCCCCCCC(=O)Oc1ccc(COP(=O)(OCc2ccc(OC(=O)CCCC)cc2)OP(=O)(O)OC[C@H]2O[C@@H](n3ccnc(C(N)=O)c3=O)[C@H](O)[C@@H]2O)cc1 (stereo partly drawn) [3b] | 1490 | 1490 ± 2360 | 120 | 116 ± 13 | 620 | > 50000 | reduced viral titers to the limit of detection | 66.4 | 850.9 | 158.2 | ≥ 30 | reduction of H5N1 virus titers to the limit of detection (in words) (A/Vietnam/1194/04 (H5N1)): to the limit of detection; antiviral activity against H7N9 compared to 1a (comparable or fold reduced) (A/Anhui/1/13 (H7N9)): comparable; reduction of H7N9 virus titers to the limit of detection (in words) (A/Anhui/1/13 (H7N9)): to the limit of detection; IC50 (A/Anhui/1/13 (H7N9)): 624 ± 1040 nM |
| CCCCCCCCCC(=O)Oc1ccc(COP(=O)(OCc2ccc(OC(=O)CCCCCCCCC)cc2)OP(=O)(O)OP(=O)(O)OC[C@H]2O[C@@H](n3ccnc(C(N)=O)c3=O)[C@H](O)[C@@H]2O)cc1 [4a, T-1106-C9C9-TriPPPro] | 3320 | 3320 ± 4410 | 310 | 314 ± 380 | 2020 ± 1230 | > 50000 | modest reduction in viral replication | 43.6 | 460.2 | 71.5 | ≥ 30 | antiviral activity against H7N9 compared to 1a (comparable or fold reduced) (A/Anhui/1/13 (H7N9)): 2.5 fold |
| O=C1c2c(O)c(=O)ccn2N([C@@H]2c3ccccc3SCc3c2ccc(F)c3F)[C@@H]2COCCN12 [Baloxavir, baloxavir] | – | – | – | – | – | – | – | – | – | – | – | inhibitory activity on PA of various IAV subtypes incl. H5N1 and H7N9 (in words) [2]: pico- to nanomolar activity |
| CCOC(=O)C1=C[C@@H](OC(CC)CC)[C@H](NC(C)=O)[C@@H](N)C1 [oseltamivir] | – | – | – | – | – | > 100000 | – | – | – | – | – | IC1 (1% inhibitory effect on viral replication), H5N1 (A/Vietnam/1194/04 (H5N1)): 0.00002 µM; IC10 (10% inhibitory effect on viral replication), H5N1 (A/Vietnam/1194/04 (H5N1)): 0.5 nM; IC50 (A/Vietnam/1194/04 (H5N1); Influenza A virus, H5N1, MDCK-II, 24 h, read-out: IC50 H5N1 (oseltamivir)): 8 nM; IC90 (A/Vietnam/1194/04 (H5N1); [6]): 127 nM |
